# Results published in patent publication US20130324428A1, “SPECIFIC BIOMARKER FOR IDENTIFICATION OF EXPOSURE TO LOWER ALIPHATIC SATURATED ALDEHYDES AND THE METHOD OF IDENTIFICATION USING THE SAME” (KOREA INSTITUTE OF SCIENCE AND TECHNOLOGY, priority 2012, published 2013).
# Experiments:
# Assay type in all cases: cell-based, human
# [1] = system: EMR2 (NM_013447) expression in A549 cells; test: Oligo microarray gene expression, EMR2; settings: A549 cells treated 48 hours at the IC20 concentration; Cy5/Cy3 ratio vs untreated control
# Procedure: (§1) A549 cells were distributed in 6-well plate at the density of 25×10^4 cells/ml, to which lower aliphatic saturated aldehydes were treated for 48 hours at the concentrations determined in Example <1-2>. Total RNA was extracted from the cells by using trizol reagent according to the manufacturer's protocol (Invitrogen life technologies, USA), followed by purification by using RNease mini kit (Qiagen, USA). Genomic DNA was eliminated by using RNase-free DNase set (Qiagen, USA) during the RNA purification. The amount of total RNA was measured with spectrophotometer, and the concentration was confirmed by ND-1000 Spectrophotometer (Thermo Fisher Scientific Inc., USA) and Agilent 2100 Bioanalyzer (Agilent).
# (§2) For oligomicroarray analysis, cDNA was synthesized by using the total RNA obtained from the experimental group treated with lower aliphatic saturated aldehydes prepared in Example <2-1>. 30 μg of the obtained total RNA and 2 μg of oilgo (dT) primer (1 μg/μl) were mixed together, followed by reaction at 65° C. for 10 minutes, which was transferred into ice for annealing. Upon completion of annealing, reagents were added thereto as shown in Table 1 to induce reverse transcription of the annealed RNA. The total RNA extracted from the control group A549 cells was labeled with Cy3-dUTP (green). The total RNA extracted from the experimental group A549 cells treated with lower aliphatic saturated aldehydes was labeled with Cy5-dUTP (red). At that time, the two samples were mixed and purified by using Microcon YM-30 column (Millipore, USA).
# (§3) Hybridization and washing processes were performed according to the protocol provided by Ebiogen Inc.
# (§4) Labeled cRNA was purified. 600 ng of the purified cRNA was reacted at 60° C. for 30 minutes for fragmentation. The prepared cRNA was mixed with 2×GEx Hybridization Buffer HI-RPM. After well mixing, the mixture was loaded on chip, followed by hybridization in the oven at 65° C. for 17 hours. 17 hours later, the chip was washed with GE Wash Buffer […] and with GE Wash Buffer 2 for 1 minute. Centrifugation was performed with the chip at 800 rpm for 3 minutes, followed by drying thereof.
# (§5) Hybridization images on the slide were scanned with Agilent C scanner (Agilent technologies, CA, USA). At that time, the green fluorescent image indicated the activity of gene expressed specifically in the control group, while the red fluorescent image indicated the activity of gene expressed specifically in the experimental group. […] To obtain gene expression rate, the scanned images were analyzed by using Agilent Feature Extraction 10.7.3.1 (Agilent technologies, CA, USA). The extracted data proceeded to normalization by using Agilent GeneSpring GX 11.5.1 (Agilent technologies, CA, USA) to analyze gene expression pattern of each gene. The marker gene for lower aliphatic saturated aldehydes was selected from the obtained data.
# [2] = system: KIF1A (NM_004321) expression in A549 cells; test: Oligo microarray gene expression, KIF1A; settings: A549 cells treated 48 hours at the IC20 concentration; Cy5/Cy3 ratio vs untreated control
# Procedure: as §1, §2, §3, §4, §5
# [3] = system: B3GALT4 (NM_003782) expression in A549 cells; test: Oligo microarray gene expression, B3GALT4; settings: A549 cells treated 48 hours at the IC20 concentration; Cy5/Cy3 ratio vs untreated control
# Procedure: as §1, §2, §3, §4, §5
# in vitro = settings: human
# Procedure: (§6) A549 cells (Korean Cell Line Bank), the human lung cancer tissue derived cell line, were cultured in 100 mm dish containing RPMI (Gibro-BRL, USA) supplemented with 10% FBS until the confluency reached 80%. […] The concentration of vehicle was up to 0.1% in every experiment.
# (§7) MTT assay was performed with A549 cell line according to the method of Mossman, et al (J. Immunol. Methods, 65, 55-63, 1983).
# (§8) Particularly, the cells were distributed in 24-well plate (3.5×10^4 cells/well) containing RPMI (Gibro-BRL, USA) and then treated with lower aliphatic saturated aldehydes dissolved in DMSO. 48 hours later, 5 mg/ml of MTT (3-4,5-dimethylthiazol-2,5-diphenyltetra zolium bromide) was added thereto, followed by culture at 37° C. for 3 hours. Then, the medium was discarded and the formed formazan crystal was dissolved in 500 μl of DMSO, which was aliquoted in 96-well plate. OD540 was measured.
# [4] = system: KIAA1199 (NM_018689) expression in A549 cells; test: Oligo microarray gene expression, KIAA1199; settings: A549 cells treated 48 hours at the IC20 concentration; Cy5/Cy3 ratio vs untreated control
# Procedure: as §1, §2, §3, §4, §5
# [5] = system: DHRS9 (NM_005771) expression in A549 cells; test: Oligo microarray gene expression, DHRS9; settings: A549 cells treated 48 hours at the IC20 concentration; Cy5/Cy3 ratio vs untreated control
# Procedure: as §1, §2, §3, §4, §5
# A549 cells = test: in vitro
# Procedure: as §6, §7, §8
SMILES,"Median ratio of microarray, EMR2 [1]","Median ratio of microarray, KIF1A [2]","Median ratio of microarray, B3GALT4 [3]",IC20 at 48 h (in vitro) [µM],"Median ratio of microarray, KIAA1199 [4]","Median ratio of microarray, DHRS9 [5]",IC20 (A549 cells) [µM]
CCCCCC=O [hexanal],1.89,1.682,0.574,800,1.736,1.654,
CCCCC=O [valeraldehyde],6.242,7.871,0.53,1700,3.122,2.088,
CCC=O [propionaldehyde],6.906,3.814,0.483,2500,4.454,2.988,
CCCCCCC=O [heptanal],2.25,1.955,0.634,600,2.815,2.157,
CCCCCCCC=O [octanal],1.785,2.262,0.564,580,2.294,3.057,
CCCC=O [butylaldehyde],8.094,14.175,0.498,,1.733,2.353,4600
